Data reported in patent US20060078535A1, “Anticancer compounds and methods” (The Regents of the University of Michigan, priority 2004, published 2006).
Entries after “also recorded” stand apart in the source; their conditions may differ. Where no end group is shown, it is not given here. [ ]: non-standard residue; d: D form. hCys = N[C@@H](CCS)C(=O)O

Experiments:
metastatic disease = conditions: human, in vivo
Description: Livant et al., “The PHSCN Sequence As An Anti-Invasive For Human Prostate Carcinoma Cells And As An Anti-Tumorigenic And Anti-Metastatic Agent For Rat Prostate Cancer” Cancer Research 60:309-320 (2000). […] In another embodiment, however, PHSCN (SEQ ID NO:86) peptide may also induce apoptosis. Furthermore, thrice-weekly PHSCN (SEQ ID NO:86) peptide intravenous doses (0.1 to 0.5 mg/kg) prevent cancer progression in metastatic ovarian cancer and metastatic prostate cancer patients in the Phase I clinical trial, for over a 6 to 10 month period.

[1] = test system: DU 145 human prostate carcinoma; conditions: mouse, in vivo; cited from earlier work
MatLyLu (MLL) cells = assay: SU-ECM invasion assay, rat MatLyLu (MLL) prostate carcinoma cells; assay type: cell-based; conditions: 10% FCS, varying concentrations
Description: Adult Strongylocentrotus purpuratus sea urchins were obtained from Pacific BioMarine, and their embryos were cultured to the early pluteus stage in artificial sea water at 15° C. SU-ECM were prepared from them by treatment with nonionic detergent and strerilized by dilution in the appropriate media. […]
(§1) Invasion assays were coded and scored blindly by microscopic examination under phase contrast at 200- and 400-fold magnification. Each cell contacting an SU-ECM was scored for its position relative to the exterior or interior surfaces. […] The minimum viability of the cells in each assay was always ascertained at the time of assay by determining the fraction of spread, adherent cells on the bottom of each well scored.
(§2) An invasion frequency is defined as the fraction of cells in contact with basement membranes which were located in their interiors at the time of assay. […] Invasion frequencies were determined multiple times for each cell type assayed. For each type of cell assayed the mean and standard deviation of the invasion frequencies were calculated. […]

[2] = test system: SUM-52 PE breast cancer cells; assay: SU-ECM invasion assay, SUM-52 PE breast cancer cells; assay type: cell-based, human; conditions: SUM-52 cells
Description: (§3) Adult Strongylocentrotus purpuratus sea urchins were obtained from Pacific BioMarine, and their embryos were cultured to the early pluteus stage in artificial sea water at 15° C. SU-ECM were prepared from them by treatment with nonionic detergent and strerilized by dilution in the appropriate media.
(§4) Cells were harvested by rinsing in Hanks' balanced salt solution, followed by brief treatment with 0.25% trypsin, 0.02% EDTA, and pelleting and resuspension in the appropriate medium with or without 5% FCS at a density of about 50,000 cells per ml. […]
as §1, §2

[3] = test system: DU-145 metastatic prostate cancer cells; assay: Invasion of fibronectin-depleted Matrigel by DU-145 cells; assay type: cell-based, human; conditions: 0.5 μl/ml peptide added to gelatin-panned Matrigel
Description: This example describes a purification approach for removal of plasma fibronectin (and/or cellular fibronectin) from a substrate (Matrigel). In this example, removal was attempted by successive panning on gelatin. Eight wells of 24-well plate were coated with a 2% gelatin solution (the gelatin was obtained from Becton Dickinson Labware, Catalog #11868). The wells were filled with the gelatin solution which had been heated to 50° C. and incubated for 3 minutes. Then the solution was removed and the wells were allowed to air dry. Following drying, the wells were thoroughly rinsed with ddH2O followed by two rinses with PBS. The plates were again allowed to dry; thereafter they were stored at −20° C. until use. Matrigel was thawed on ice and then added to one of the wells of a gelatin-coated plate (between 800 μl and 1 ml of Matrigel was added to a well of a 24-well plate). The plate was placed in a bucket of ice in a […] room on an orbital shaker where the Matrigel was incubated in the well for two hours (although overnight incubation can be used). Following the incubation, the Matrigel was moved from the first well to a second well and then incubated for two hours under the same conditions. This process was repeated until the Matrigel had been incubated on all eight wells of the gelatin-coated plate.
Following the depletion of the Matrigel, it was collected in Eppendorf tubes. […]

keratinocytes = assay: SU-ECM invasion by keratinocytes; assay type: cell-based; conditions: serum-free SU-ECM
Source text: Since, during wound reepithelialization, keratinocytes migrate through the connective tissue of the provisional matrix to “wall off” portions of the wound, as well as through the adjacent stroma, it is not surprising that they are also stimulated to migrate through the matrix of SU-ECM invasion substrates by the PHSRN (SEQ ID NO: 1) sequence. […] Recruitment of fibroblasts or monocytes/macrophages whose paracrine, regulatory effects on a variety of neighboring cells are required for the early stages of wound healing is contemplated as a highly efficient and effective way to stimulate the cascade of regulatory interactions involved in wound healing because these cells will secrete the active factors or cytokines in the correct temporal sequences and spatial locations to ensure their optimal activities. Because it efficiently induces keratinocyte migration through the extracellular matrix in vitro, the PHSRN (SEQ ID NO: 1) peptide is also likely to stimulate wound reepithelialization directly. The use of the PHSRN (SEQ ID NO: 1) peptide or structurally related molecules according to the present invention is to stimulate the entry of cells such as fibroblasts and monocyte/macrophages into the provisional matrix of a wound, so that the entering cells themselves secrete the factors and cytokines active in inducing or potentiating wound healing. […]

[4] = test system: normal, neonatal fibroblasts; assay: Invasion of gelatin- and antibody-depleted Matrigel by fibroblasts; assay type: cell-based; conditions: gelatin plus antibody panned Matrigel
Description: Anti-fibronectin antibody-coated wells: Wells of a 24-well plate were coated with an anti-fibronectin antibody. A mouse monoclonal antibody to human fibronectin was obtained from Oncogene Science (Catalog #CP13). Each well was incubated with 1 ml of antibody at a concentration of 30 μl/ml for 2 hours at room temperature. Each well was then incubated with a solution of 3% BSA in PBS for 2 hours at room temperature. Following the two incubation periods, the wells were thoroughly washed with PBS and stored at −20° C. until use.
Depleting Matrigel of Fibronectin: Matrigel was panned over eight gelatin-coated wells (as described above in Example 2) to remove most of the fibronectin and its fragments. Thereafter, the Matrigel was placed in the antibody-coated wells to remove any remaining fragments of fibronectin which contain the cell-binding domain but not the gelatin-binding domain. The Matrigel was incubated in an ice bucket on an orbital shaker at 4° C. for 2 hours. Once the Matrigel was depleted, it was collected in Eppendorf tubes. The firbonectin-depleted Matrigel was plated on a 48-well plate (150 μl/well), sterilized under a UV light for 10 minutes and incubated at 37° C. overnight. The Matrigel formed a gel and the following day, cells were added to the wells. […]

[5] = test system: DU-145 prostate cancer cells; assay: SU-ECM invasion assay, DU-145 prostate cancer cells; assay type: cell-based, human; conditions: DU-145 cells
Description: as §3, §4, §1, §2

[6] = test system: neonatal, human fibroblasts; assay: SU-ECM basement membrane invasion by fibroblasts; assay type: cell-based; conditions: with or without serum as stated
Source text: Since, during wound reepithelialization, keratinocytes migrate through the connective tissue of the provisional matrix to “wall off” portions of the wound, as well as through the adjacent stroma, it is not surprising that they are also stimulated to migrate through the matrix of SU-ECM invasion substrates by the PHSRN (SEQ ID NO: 1) sequence. […]
as §1, §2

[7] = target: T1, immobilized α5β1 integrin (UniProt P08648 42-1049; P05556 21-798); assay: saturation binding of PHSCNGGK(biotin) to immobilized α5β1 integrin, read as optical density at 490 nm (FIG. 11)
T1 construct: also called α5β1 integrin receptor; α5β1 integrin fibronectin receptor
T1 sequence (P08648 42-1049, chain 1 of 2): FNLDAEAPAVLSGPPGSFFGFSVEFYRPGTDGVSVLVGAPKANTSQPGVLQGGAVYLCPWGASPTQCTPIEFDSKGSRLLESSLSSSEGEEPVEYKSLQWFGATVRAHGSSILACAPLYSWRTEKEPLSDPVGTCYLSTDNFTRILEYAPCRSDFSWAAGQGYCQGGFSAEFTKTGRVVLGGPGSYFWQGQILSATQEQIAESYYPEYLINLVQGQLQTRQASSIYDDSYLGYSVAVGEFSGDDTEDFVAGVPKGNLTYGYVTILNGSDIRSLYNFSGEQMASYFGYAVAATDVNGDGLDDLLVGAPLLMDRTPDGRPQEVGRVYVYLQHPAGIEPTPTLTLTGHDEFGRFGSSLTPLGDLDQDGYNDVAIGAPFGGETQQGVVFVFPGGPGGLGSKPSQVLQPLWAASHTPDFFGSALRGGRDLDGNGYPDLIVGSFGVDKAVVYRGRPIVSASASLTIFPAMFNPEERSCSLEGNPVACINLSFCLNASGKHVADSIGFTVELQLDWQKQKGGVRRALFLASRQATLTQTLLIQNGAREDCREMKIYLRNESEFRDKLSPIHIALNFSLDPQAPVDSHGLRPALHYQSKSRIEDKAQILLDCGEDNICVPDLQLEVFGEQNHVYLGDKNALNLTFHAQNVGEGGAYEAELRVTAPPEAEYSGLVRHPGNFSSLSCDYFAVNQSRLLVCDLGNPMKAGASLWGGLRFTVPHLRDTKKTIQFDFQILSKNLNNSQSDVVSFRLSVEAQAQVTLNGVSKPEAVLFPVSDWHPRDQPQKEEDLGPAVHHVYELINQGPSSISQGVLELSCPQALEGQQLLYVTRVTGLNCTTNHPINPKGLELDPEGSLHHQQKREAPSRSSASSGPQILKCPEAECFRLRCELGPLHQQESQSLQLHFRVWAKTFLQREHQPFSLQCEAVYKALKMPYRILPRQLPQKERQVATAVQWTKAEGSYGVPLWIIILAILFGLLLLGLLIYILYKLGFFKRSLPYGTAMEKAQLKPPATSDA
T1 sequence (P05556 21-798, chain 2 of 2): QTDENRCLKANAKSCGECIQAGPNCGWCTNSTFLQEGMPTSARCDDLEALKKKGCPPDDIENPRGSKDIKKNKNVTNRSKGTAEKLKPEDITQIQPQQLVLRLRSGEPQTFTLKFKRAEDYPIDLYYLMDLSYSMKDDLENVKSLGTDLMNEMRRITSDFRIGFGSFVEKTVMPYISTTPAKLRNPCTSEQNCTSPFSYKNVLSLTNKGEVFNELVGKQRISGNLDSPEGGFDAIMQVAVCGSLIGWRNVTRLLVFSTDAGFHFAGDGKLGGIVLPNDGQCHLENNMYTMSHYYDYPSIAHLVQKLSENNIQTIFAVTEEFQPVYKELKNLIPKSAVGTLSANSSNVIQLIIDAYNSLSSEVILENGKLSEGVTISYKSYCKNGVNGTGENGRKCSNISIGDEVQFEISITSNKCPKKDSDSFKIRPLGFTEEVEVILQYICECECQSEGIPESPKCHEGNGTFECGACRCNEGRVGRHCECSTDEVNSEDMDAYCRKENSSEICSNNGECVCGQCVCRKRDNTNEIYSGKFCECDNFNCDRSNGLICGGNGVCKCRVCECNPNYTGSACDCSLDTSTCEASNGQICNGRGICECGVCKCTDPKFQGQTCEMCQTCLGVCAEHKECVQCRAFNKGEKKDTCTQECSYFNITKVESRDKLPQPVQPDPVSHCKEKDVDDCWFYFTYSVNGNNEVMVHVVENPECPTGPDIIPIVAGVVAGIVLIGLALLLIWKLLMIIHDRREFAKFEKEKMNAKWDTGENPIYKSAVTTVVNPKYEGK

## Ac-PHSCN-NH2 (N-terminus and C-terminus assumed) [PHSCN, Pro-His-Ser-Cys-Asn]
Metastatic disease
  total treatment-emergent serious adverse events: 11
[1]
  tolerability of treated mice: no obvious loss of vigor or difficulty in healing

## PHS(hC)N: homo-cysteine containing peptide (PHS[hCys]N)
MatLyLu (MLL) cells
  inhibition of serum-induced invasion: substantially inhibits invasion at lower concentrations; also recorded: completely inhibits invasion at higher concentrations

## Pro-His-Ser-Arg-Asn (PHSRN)
[2]
  induction of invasion of SU-ECM: induced to invade the SU-ECM substrate
[3]
  DU-145 invasiveness on depleted Matrigel: sufficient to restore the full DU-145 invasiveness
keratinocytes
  keratinocyte invasion: stimulate keratinocyte invasion of serum-free SU-ECM
[4]
  fibroblast invasiveness on depleted Matrigel: invasiveness of the fibroblasts could be induced
[5]
  induction of invasion of SU-ECM: induced to invade the SU-ECM substrate
[6]
  fibroblast invasion of SU-ECM basement membranes: induced with the PHSRN (SEQ ID NO:1) peptide to invade serum-free SU-ECM

## intact plasma fibronectin: purified bovine plasma fibronectin (Sigma)
[6]
  fibroblast invasion of SU-ECM basement membranes: fails to stimulate fibroblast invasion

## Ac-PHSCNGG-{K(biotin)-NH2} (also: further groups not given here, also called biotinylated PHSCN peptide) [Ac-PHSCNGGK(biotin)-NH2]
[7]
  Kd: 272 nM
